This experiment deals with T1, NHSSP (Onygena corvina, UniProt A0A0B4VM82).
T1 sequence (A0A0B4VM82 113-391): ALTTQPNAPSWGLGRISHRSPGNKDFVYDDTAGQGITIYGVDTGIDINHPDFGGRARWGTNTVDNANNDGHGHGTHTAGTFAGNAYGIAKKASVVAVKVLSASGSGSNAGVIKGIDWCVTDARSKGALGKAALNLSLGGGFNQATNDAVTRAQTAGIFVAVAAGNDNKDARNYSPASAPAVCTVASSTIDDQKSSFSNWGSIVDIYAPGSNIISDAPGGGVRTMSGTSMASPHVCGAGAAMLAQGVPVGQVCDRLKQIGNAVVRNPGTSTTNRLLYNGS
The experiment can be described thus: biochemical. The class given is biochemical. As for the experimental part:
The influence of different inhibitors on the enzymatic activity of NHSSP was determined by hydrolysis of azocasein in Britton-Robinson buffer pH 6.5 supplemented with appropriate substances. The reaction was stopped by the addition of TCA to the final concentration of 293 mM, centrifuged as described above, and the absorbance of supernatants was measured at 450 nm.
The enzymatic reaction was carried out at 40°C with a final inhibitor concentration of 1 mM.

The mark [1] stands for this setting: final inhibitor concentration of 1 mM, 40°C, pH 6.5.
[2] abbreviates: remaining NHSSP activity, final inhibitor concentration of 1 mM, 40°C, Britton-Robinson buffer pH 6.5, read-out: Activity (%).

Like-named read-outs stand apart in the source and are kept apart here.

On to `O=S(=O)(F)Cc1ccccc1` [PMSF, phenylmethylsulfonyl fluoride], for which the “inhibition of NHSSP protease activity (in words)” value (“inhibition” below) under setting [1] is reported as “identified as an inhibitor of NHSSP”. In addition, under “remaining NHSSP activity, final inhibitor concentration of 1 mM, 40°C, Britton-Robinson buffer pH 6.5”, the “Activity (%)” value is 40%.

As for `OCCS` [2-ß ME, ß-mercaptoethanol], the “inhibition” value under setting [1] was “did not significantly inhibit protease activity”. Further, under setting [2], the activity at 1000 µM came out at 99%.

Regarding `O=C(O)CN(CCN(CC(=O)O)CC(=O)O)CC(=O)O` [EDTA, ethylenediamine tetraacetate], where the note is “pH 6.5”, the activity at 1000 µM turned out to be 100% and the “inhibition” value is listed as “did not significantly inhibit protease activity”.

With `O=C(O)CCP(CCC(=O)O)CCC(=O)O` [TCEP], the “inhibition” value under setting [1] is listed as “did not significantly inhibit protease activity”. Moreover, under setting [2], the activity at 1000 µM is 97%.

Values taken from patent EP3441475A1, “NEUTRAL HEAT-SENSITIVE SERINE PROTEASE DERIVED FROM O. CORVINA” (priority 2017, dated 2019).
